Measured values: the kinase profiling compilation of Christmann-Franck et al. (2016)

Tests used:
Assay in all cases: radiometric filter-binding kinase assay
[1] = test system: AKT1 (human), P31749 [S473D]
[2] = target: AURKB (human) (UniProt Q96GD4)
[3] = target: CDK2 CCNA2 (human) (UniProt P20248+P24941)
[4] = target: CHEK1 (human) (UniProt O14757)
[5] = target: CHEK2 (human) (UniProt O96017)
[6] = target: CSK (human) (UniProt P41240)
[7] = target: CaMK1 (human) (UniProt Q14012)
[8] = target: DYRK3 (human) (UniProt O43781)
[9] = target: EPHA2 (human) (UniProt P29317); conditions: compound 10.0 µM
[10] = target: EPHA4 (human) (UniProt P54764)
Sequence of EPHA4 (human) (P54764 whole entry, looked up): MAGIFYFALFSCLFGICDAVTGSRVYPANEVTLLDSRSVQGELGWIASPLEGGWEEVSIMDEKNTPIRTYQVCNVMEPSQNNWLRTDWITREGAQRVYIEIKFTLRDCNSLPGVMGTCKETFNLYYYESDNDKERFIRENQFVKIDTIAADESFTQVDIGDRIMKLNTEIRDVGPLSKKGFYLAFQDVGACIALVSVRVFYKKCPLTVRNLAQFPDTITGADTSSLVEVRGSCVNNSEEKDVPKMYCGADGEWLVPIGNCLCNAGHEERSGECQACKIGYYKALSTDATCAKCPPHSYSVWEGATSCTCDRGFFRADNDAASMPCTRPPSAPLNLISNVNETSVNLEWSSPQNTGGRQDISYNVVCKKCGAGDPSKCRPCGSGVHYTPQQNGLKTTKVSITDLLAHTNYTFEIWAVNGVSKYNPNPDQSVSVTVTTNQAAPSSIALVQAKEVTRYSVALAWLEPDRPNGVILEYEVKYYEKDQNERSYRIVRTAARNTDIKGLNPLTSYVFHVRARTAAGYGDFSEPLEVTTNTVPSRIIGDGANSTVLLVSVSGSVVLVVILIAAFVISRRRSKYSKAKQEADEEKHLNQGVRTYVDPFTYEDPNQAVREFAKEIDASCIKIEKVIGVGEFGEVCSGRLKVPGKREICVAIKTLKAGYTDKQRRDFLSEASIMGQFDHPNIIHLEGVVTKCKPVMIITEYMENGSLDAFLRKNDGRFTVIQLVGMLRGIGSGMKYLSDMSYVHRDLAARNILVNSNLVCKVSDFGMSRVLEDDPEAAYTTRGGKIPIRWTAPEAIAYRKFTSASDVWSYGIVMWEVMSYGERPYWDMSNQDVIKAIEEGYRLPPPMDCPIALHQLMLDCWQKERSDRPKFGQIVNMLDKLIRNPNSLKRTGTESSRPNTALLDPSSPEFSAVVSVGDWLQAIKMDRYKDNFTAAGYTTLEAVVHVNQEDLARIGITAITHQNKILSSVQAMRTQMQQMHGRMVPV

[11] = target: EPHB1 (human) (UniProt P54762)
[12] = target: EPHB2 (human) (UniProt P29323)
[13] = target: EPHB3 (human) (UniProt P54753); conditions: compound 10.0 µM
[14] = target: GCK (human) (UniProt Q12851)
[15] = target: IKBKB (human) (UniProt O14920)
Sequence of IKBKB (human) (O14920 whole entry, looked up): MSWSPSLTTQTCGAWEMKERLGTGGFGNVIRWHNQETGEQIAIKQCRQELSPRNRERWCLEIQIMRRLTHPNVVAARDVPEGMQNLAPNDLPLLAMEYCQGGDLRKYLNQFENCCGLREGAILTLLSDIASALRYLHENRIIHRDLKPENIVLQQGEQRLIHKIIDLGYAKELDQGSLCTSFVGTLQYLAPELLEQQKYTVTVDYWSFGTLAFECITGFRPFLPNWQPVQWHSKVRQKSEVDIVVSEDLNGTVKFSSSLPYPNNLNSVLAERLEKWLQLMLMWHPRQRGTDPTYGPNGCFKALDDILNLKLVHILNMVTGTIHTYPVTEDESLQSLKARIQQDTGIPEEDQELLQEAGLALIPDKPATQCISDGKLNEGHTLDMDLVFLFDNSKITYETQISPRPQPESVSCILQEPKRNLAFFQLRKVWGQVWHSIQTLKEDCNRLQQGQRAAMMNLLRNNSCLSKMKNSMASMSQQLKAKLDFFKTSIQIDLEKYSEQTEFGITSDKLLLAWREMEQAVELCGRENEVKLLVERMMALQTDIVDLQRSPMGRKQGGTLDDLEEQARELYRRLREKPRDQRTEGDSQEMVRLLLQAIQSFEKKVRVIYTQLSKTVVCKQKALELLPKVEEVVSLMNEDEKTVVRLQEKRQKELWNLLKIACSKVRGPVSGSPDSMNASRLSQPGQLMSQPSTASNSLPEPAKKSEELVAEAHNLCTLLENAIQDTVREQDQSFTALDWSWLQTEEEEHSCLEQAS

[16] = test system: LCK (mouse); conditions: accession and sequence are those of the human protein
[17] = target: MAP2K1 (human) (UniProt Q02750)
[18] = target: MAP3K11 (human) (UniProt Q16584)
Sequence of MAP3K11 (human) (Q16584 whole entry, looked up): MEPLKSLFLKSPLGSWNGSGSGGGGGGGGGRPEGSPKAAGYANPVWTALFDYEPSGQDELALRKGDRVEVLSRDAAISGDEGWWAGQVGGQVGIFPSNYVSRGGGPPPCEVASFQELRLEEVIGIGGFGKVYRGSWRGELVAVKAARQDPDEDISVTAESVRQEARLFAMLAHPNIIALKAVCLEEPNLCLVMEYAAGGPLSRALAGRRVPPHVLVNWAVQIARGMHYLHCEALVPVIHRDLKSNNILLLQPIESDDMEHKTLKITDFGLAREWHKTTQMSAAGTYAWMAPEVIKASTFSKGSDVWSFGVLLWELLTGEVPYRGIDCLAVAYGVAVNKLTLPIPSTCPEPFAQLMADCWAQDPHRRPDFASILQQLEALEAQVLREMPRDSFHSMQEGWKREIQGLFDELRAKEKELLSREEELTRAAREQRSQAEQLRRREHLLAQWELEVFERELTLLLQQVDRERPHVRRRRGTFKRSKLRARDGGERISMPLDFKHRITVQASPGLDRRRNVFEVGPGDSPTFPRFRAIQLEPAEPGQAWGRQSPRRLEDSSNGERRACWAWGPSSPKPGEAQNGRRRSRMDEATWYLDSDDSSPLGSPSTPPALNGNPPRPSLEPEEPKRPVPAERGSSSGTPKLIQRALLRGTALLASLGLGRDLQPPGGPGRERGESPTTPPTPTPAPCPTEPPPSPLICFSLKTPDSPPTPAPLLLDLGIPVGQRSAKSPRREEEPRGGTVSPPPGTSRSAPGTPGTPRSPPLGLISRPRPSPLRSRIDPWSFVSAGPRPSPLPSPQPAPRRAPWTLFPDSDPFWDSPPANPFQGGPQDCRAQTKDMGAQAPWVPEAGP

[19] = target: MAP3K7 TAB1 (human) (UniProt Q15750+O43318)
[20] = target: MAPK10 (human) (UniProt P53779)
[21] = target: MAPK8 (human) (UniProt P45983)
[22] = target: MARK2 (human) (UniProt Q7KZI7)
[23] = target: MINK1 (human) (UniProt Q8N4C8)
[24] = target: MST4 (human) (UniProt Q9P289)
[25] = target: MYLK (human) (UniProt Q15746)
Sequence of MYLK (human) (Q15746 whole entry, looked up): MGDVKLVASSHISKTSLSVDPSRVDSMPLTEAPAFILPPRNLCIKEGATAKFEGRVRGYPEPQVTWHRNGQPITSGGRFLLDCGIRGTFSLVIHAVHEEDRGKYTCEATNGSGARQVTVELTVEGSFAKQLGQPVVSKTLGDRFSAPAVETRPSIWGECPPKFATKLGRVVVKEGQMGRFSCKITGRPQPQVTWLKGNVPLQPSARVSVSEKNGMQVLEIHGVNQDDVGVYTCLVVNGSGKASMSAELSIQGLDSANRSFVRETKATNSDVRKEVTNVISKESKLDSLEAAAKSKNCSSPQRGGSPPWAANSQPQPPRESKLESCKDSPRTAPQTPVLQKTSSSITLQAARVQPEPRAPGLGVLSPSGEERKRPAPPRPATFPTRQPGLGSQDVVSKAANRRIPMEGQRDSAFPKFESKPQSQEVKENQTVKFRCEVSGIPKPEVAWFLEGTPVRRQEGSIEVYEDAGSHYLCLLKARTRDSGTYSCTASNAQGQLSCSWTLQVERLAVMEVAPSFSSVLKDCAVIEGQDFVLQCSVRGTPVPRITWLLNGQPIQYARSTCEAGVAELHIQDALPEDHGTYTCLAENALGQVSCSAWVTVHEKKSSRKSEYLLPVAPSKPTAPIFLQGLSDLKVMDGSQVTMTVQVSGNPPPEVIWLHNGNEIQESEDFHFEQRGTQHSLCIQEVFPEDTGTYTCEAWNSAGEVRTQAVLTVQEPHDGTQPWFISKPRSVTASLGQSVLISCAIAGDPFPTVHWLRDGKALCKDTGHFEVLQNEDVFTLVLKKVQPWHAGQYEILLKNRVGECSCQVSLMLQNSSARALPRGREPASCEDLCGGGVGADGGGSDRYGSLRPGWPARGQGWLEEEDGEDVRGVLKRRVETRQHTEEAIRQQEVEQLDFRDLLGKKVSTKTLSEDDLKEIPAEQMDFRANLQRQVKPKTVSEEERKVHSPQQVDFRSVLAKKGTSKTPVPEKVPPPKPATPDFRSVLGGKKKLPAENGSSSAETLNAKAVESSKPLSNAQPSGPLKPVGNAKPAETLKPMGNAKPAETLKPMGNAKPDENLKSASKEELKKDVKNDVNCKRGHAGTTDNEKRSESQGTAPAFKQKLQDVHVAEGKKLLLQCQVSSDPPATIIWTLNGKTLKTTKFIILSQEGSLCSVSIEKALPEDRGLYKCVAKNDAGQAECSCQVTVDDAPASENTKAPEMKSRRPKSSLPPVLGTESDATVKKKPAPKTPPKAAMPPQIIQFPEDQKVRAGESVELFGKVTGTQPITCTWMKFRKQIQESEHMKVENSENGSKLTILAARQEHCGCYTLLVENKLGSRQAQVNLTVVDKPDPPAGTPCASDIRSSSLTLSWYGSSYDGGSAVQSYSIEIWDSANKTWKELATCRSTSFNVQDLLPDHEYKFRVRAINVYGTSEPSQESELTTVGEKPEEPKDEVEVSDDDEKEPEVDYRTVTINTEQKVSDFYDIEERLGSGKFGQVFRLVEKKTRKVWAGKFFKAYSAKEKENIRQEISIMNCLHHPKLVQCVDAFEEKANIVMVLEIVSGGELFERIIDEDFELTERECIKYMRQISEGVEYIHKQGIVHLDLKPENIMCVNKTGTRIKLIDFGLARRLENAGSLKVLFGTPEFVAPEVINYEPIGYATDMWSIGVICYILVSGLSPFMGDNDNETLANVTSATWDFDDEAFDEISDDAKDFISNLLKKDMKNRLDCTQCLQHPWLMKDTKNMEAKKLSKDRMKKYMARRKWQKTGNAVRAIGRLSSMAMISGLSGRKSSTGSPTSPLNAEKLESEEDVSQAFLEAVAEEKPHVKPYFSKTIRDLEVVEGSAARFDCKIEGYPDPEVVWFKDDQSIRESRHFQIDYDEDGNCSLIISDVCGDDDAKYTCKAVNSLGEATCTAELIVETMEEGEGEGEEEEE

[26] = target: NUAK1 (human) (UniProt O60285); conditions: compound 1.0 µM
[27] = test system: PAK2 (human), Q13177 [T402E]
[28] = target: PAK4 (human) (UniProt O96013)
Sequence of PAK4 (human) (O96013 whole entry, looked up): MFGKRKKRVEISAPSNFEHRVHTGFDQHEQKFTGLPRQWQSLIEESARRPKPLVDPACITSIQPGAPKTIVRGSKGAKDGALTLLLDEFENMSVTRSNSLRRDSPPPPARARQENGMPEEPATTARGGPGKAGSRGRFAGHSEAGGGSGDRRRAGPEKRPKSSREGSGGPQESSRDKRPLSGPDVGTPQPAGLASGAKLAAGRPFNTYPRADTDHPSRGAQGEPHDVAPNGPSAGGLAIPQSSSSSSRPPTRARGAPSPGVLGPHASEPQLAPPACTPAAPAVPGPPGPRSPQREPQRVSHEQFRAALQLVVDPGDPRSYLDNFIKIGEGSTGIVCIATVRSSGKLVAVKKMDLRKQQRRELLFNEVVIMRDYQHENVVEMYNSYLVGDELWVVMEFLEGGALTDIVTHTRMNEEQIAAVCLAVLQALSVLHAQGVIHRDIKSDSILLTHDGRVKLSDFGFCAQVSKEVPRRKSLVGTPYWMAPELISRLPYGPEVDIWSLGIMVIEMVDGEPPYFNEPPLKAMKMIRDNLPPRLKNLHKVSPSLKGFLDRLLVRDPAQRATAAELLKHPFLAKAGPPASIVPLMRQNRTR

[29] = target: PAK6 (human) (UniProt Q9NQU5)
[30] = target: PKN2 (human) (UniProt Q16513)
[31] = test system: ROCK2 (rat); conditions: accession and sequence are those of the human protein
[32] = target: RPS6KA3 KD1 KD2 (human) (UniProt P51812)
[33] = target: SRC (human) (UniProt P12931)
[34] = target: TAOK1 (human) (UniProt Q7L7X3)
[35] = target: TBK1 (human) (UniProt Q9UHD2)
[36] = target: TTK (human) (UniProt P33981)

residual activity ([1]; compound 1.0 µM): 88%
residual activity ([1]; compound 10.0 µM): 91%
residual activity ([2]; compound 1.0 µM): 83%
residual activity ([2]; compound 10.0 µM): 105%
residual activity ([3]; compound 1.0 µM): 96%
residual activity ([3]; compound 10.0 µM): 87%
residual activity ([4]; compound 1.0 µM): 94%
residual activity ([4]; compound 10.0 µM): 82%
residual activity ([5]; compound 1.0 µM): 96%
residual activity ([5]; compound 10.0 µM): 93%
residual activity ([6]; compound 1.0 µM): 87%
residual activity ([6]; compound 10.0 µM): 97%
residual activity ([7]; compound 1.0 µM): 103%
residual activity ([7]; compound 10.0 µM): 91%
residual activity ([8]; compound 1.0 µM): 104%
residual activity ([8]; compound 10.0 µM): 99%
residual activity [9]: 96%
residual activity ([10]; compound 1.0 µM): 110%
residual activity ([10]; compound 10.0 µM): 124%
residual activity ([11]; compound 1.0 µM): 115%
residual activity ([11]; compound 10.0 µM): 126%
residual activity ([12]; compound 1.0 µM): 107%
residual activity ([12]; compound 10.0 µM): 113%
residual activity [13]: 102%
residual activity ([14]; compound 1.0 µM): 103%
residual activity ([14]; compound 10.0 µM): 114%
residual activity ([15]; compound 1.0 µM): 100%
residual activity ([15]; compound 10.0 µM): 106%
residual activity ([16]; compound 1.0 µM): 100%
residual activity ([16]; compound 10.0 µM): 99%
residual activity ([17]; compound 1.0 µM): 90%
residual activity ([17]; compound 10.0 µM): 92%
residual activity ([18]; compound 1.0 µM): 92%
residual activity ([18]; compound 10.0 µM): 98%
residual activity ([19]; compound 1.0 µM): 99%
residual activity ([19]; compound 10.0 µM): 104%
residual activity ([20]; compound 1.0 µM): 90%
residual activity ([20]; compound 10.0 µM): 95%
residual activity ([21]; compound 1.0 µM): 99%
residual activity ([21]; compound 10.0 µM): 106%
residual activity ([22]; compound 1.0 µM): 99%
residual activity ([22]; compound 10.0 µM): 104%
residual activity ([23]; compound 1.0 µM): 111%
residual activity ([23]; compound 10.0 µM): 118%
residual activity ([24]; compound 1.0 µM): 106%
residual activity ([24]; compound 10.0 µM): 112%
residual activity ([25]; compound 1.0 µM): 94%
residual activity ([25]; compound 10.0 µM): 94%
residual activity [26]: 99%
residual activity ([27]; compound 1.0 µM): 101%
residual activity ([27]; compound 10.0 µM): 103%
residual activity ([28]; compound 1.0 µM): 102%
residual activity ([28]; compound 10.0 µM): 107%
residual activity ([29]; compound 1.0 µM): 102%
residual activity ([29]; compound 10.0 µM): 104%
residual activity ([30]; compound 1.0 µM): 93%
residual activity ([30]; compound 10.0 µM): 88%
residual activity ([31]; compound 1.0 µM): 90%
residual activity ([31]; compound 10.0 µM): 88%
residual activity ([32]; compound 1.0 µM): 93%
residual activity ([32]; compound 10.0 µM): 101%
residual activity ([33]; compound 1.0 µM): 105%
residual activity ([33]; compound 10.0 µM): 114%
residual activity ([34]; compound 1.0 µM): 106%
residual activity ([34]; compound 10.0 µM): 96%
residual activity ([35]; compound 1.0 µM): 95%
residual activity ([35]; compound 10.0 µM): 102%
residual activity ([36]; compound 1.0 µM): 104%
residual activity ([36]; compound 10.0 µM): 118%
SMILES: Nc1cccc2c1CN(C1CCC(=O)NC1=O)C2=O (centres undefined)
